In assay [1] the target is IL-17A(FLAG-Tagged): IL-17RA(His-Tagged) (Homo sapiens, UniProt Q16552, K93Q). Kind of assay: IL-17A(FLAG-Tagged): IL-17RA(His-Tagged) Binding Disruption Eu-HTRF Assay. To be noted: IL-17A/IL-17RA binding disruption, simple average if tested more than once. The procedure, abridged: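 IC50 comes from a one-site competition fit of the HTRF 665/620 nm ratio. Compound dilutions (2-fold, 22 points) were held 1 h rt with FLAG-tagged IL-17A dimer, then His-tagged IL-17RA plus Eu-cryptate anti-FLAG and D2 anti-His antibodies were added for 2 h rt.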
Chain of UniProt Q16552 (Q16552 with tags, fused parts or gaps K93Q): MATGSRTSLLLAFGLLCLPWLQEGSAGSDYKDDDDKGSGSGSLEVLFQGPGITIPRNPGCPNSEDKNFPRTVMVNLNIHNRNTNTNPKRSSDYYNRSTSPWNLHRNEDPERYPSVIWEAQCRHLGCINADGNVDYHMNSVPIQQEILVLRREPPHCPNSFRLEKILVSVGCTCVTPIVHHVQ

The subject of assay [2] is IL-17A-induced G-CSF production in human normal keratinocyte (NHK). As to the kind of experiment: NHK Assay: IL-17A-induced G-CSF production in human normal keratinocytes. Type of assay: cell-based. To be noted: Homo sapiens, Keratinocyte, 24 h, adult normal human keratinocytes, IL-17A 5 ng/mL, simple average if tested more than once. The procedure, abridged:
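Adult normal human keratinocytes were seeded at 3000-4000 cells/well. Recombinant human IL-17A was pre-incubated 1 h at rt with titrated compound, then added to cells (final 5 ng/mL IL-17A, 0.2% DMSO, 5% FBS) for 24 h at 37° C. Supernatant G-CSF was measured by HTRF against a standard curve to give IC50.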

In another assay the test system is patients with PsA. To be noted: PsA with inadequate response to conventional synthetic disease-modifying antirheumatic drug; cited from earlier work.
For assay [3], the system named is patients with moderate-to-severe HS. To be noted: seven of nine patients, open-label pilot-trial; cited from earlier work.
Assay [4] relates to SCIDhu model of human myeloma. To be noted: weekly for 4 weeks after first detection of tumor, compared to isotype control mice; cited from earlier work.
The next assay concerns patients with active PsA. The conditions noted are these: compared with anti-TNFα antibodies; cited from earlier work.

Regarding `N#CC1([C@@H](NC(=O)CC2CC(F)(F)C2)c2cnn3cc([C@@H](NC(=O)c4nonc4C4CC4)C4CCC(F)(F)CC4)nc3c2)CCC1` [Example 487, N—((S)-(7-((S)-(1-Cyanocyclobutyl)(2-(3,3-difluorocyclobutyl)acetamido)methyl)imidazo[1,2-b]pyridazin-2-yl)(4,4-difluorocyclohexyl)methyl)-4-cyclopropyl-1,2,5-oxadiazole-3-carboxamide], the IC50 came to 45 nM in assay [1] and 6 nM in assay [2].
With `[2H]C([2H])([2H])n1nccc1C(=O)N[C@H](c1cn2ncc([C@H](NC(=O)CCC(F)(F)F)C3CC3)cc2n1)C1CCC(F)(F)CC1` [Example 488, N—((S)-(7-((R)-Cyclopropyl(4,4,4-trifluorobutanamido)methyl)imidazo[1,2-b]pyridazin-2-yl)(4,4-difluorocyclohexyl)methyl)-1-(methyl-d3)-1H-pyrazole-5-carboxamide], the 50% inhibitory concentration (IC50) in assay [1] stood at 95 nM; in assay [2], 220 nM.
With `[2H]C([2H])([2H])n1nccc1C(=O)N[C@H](c1cn2ncc([C@H](NC(=O)CC3CC(F)(F)C3)C3CC3)cc2n1)C1CCC(F)(F)CC1` [Example 489, N—((S)-(7-((R)-Cyclopropyl(2-(3,3-difluorocyclobutyl)acetamido)methyl)imidazo[1,2-b]pyridazin-2-yl)(4,4-difluorocyclohexyl)methyl)-1-(methyl-d3)-1H-pyrazole-5-carboxamide], the values for the IC50 in assay [1] and in assay [2] were 54 nM and 140 nM, respectively.
Regarding `CC(C)(OC[C@H](NC(=O)c1nonc1C1CC1)c1cn2ncc([C@H](NC(=O)CC3CC(F)(F)C3)C3CCOCC3)cc2n1)C(F)(F)F` [Example 540, 4-Cyclopropyl-N—((R)-1-(7-((R)-(2-(3,3-difluorocyclobutyl)acetamido)(tetrahydro-2H-pyran-4-yl)methyl)imidazo[1,2-b]pyridazin-2-yl)-2-((1,1,1-trifluoro-2-methylpropan-2-yl)oxy)ethyl)-1,2,5-oxadiazole-3-carboxamide], the IC50 stood at 14 nM in assay [1] and 9.6 nM in assay [2].
Take `CC(C)n1nccc1C(=O)N[C@@H](COC(C)(C)C(F)(F)F)c1cn2ncc([C@H](NC(=O)CC3CC(F)(F)C3)C3CCOCC3)cc2n1` [Example 541, N—((R)-1-(7-((R)-(2-(3,3-Difluorocyclobutyl)acetamido)(tetrahydro-2H-pyran-4-yl)methyl)imidazo[1,2-b]pyridazin-2-yl)-2-((1,1,1-trifluoro-2-methylpropan-2-yl)oxy)ethyl)-1-isopropyl-1H-pyrazole-5-carboxamide]: the IC50 was 130 nM in assay [1] and 29 nM in assay [2].
The like results for `CC(C)(C[C@H](NC(=O)c1nonc1C1CC1)c1cn2ncc([C@H](NC(=O)CC3CC(F)(F)C3)C3CC3)cc2n1)C(F)(F)F` [Example 542, 4-Cyclopropyl-N—((S)-1-(7-((R)-cyclopropyl(2-(3,3-difluorocyclobutyl)acetamido)methyl)imidazo[1,2-b]pyridazin-2-yl)-4,4,4-trifluoro-3,3-dimethylbutyl)-1,2,5-oxadiazole-3-carboxamide] were, in that order, 52 nM and 46 nM.
With `CC(C)n1nccc1C(=O)N[C@@H](CC(C)(C)C(F)(F)F)c1cn2ncc([C@H](NC(=O)CC3CC(F)(F)C3)C3CC3)cc2n1` [Example 543, N—((S)-1-(7-((R)-Cyclopropyl(2-(3,3-difluorocyclobutyl)acetamido)methyl)imidazo[1,2-b]pyridazin-2-yl)-4,4,4-trifluoro-3,3-dimethylbutyl)-1-isopropyl-1H-pyrazole-5-carboxamide], the IC50 in assay [1] amounted to 180 nM; in assay [2] it was 72 nM.
The like results for `Cc1nonc1C(=O)N[C@@H](CC(C)(C)C(F)(F)F)c1cn2ncc([C@H](NC(=O)CC3CC(F)(F)C3)C3CC3)cc2n1` [Example 544, N—((S)-1-(7-((R)-Cyclopropyl(2-(3,3-difluorocyclobutyl)acetamido)methyl)imidazo[1,2-b]pyridazin-2-yl)-4,4,4-trifluoro-3,3-dimethylbutyl)-4-methyl-1,2,5-oxadiazole-3-carboxamide] were, in that order, 120 nM and 240 nM.
Consider `[2H]C([2H])([2H])C([2H])([2H])n1nccc1C(=O)N[C@@H](CC(C)(C)C(F)(F)F)c1cn2ncc([C@H](NC(=O)CC3CC(F)(F)C3)C3CC3)cc2n1` [Example 545, N—((S)-1-(7-((R)-Cyclopropyl(2-(3,3-difluorocyclobutyl)acetamido)methyl)imidazo[1,2-b]pyridazin-2-yl)-4,4,4-trifluoro-3,3-dimethylbutyl)-1-(ethyl-d5)-1H-pyrazole-5-carboxamide], for which the IC50 in assay [1] stood at 170 nM; in assay [2], 150 nM.
ixekizumab: the “simultaneous improvement of joint and skin disease (ACR50 and PASI100)” value with patients with PsA was “superior to adalimumab”.
For the molecule secukinumab, in assay [3], the “patients achieving HiSCR” value was 78%. Also, in assay [4], the bone damage entry is on record as “reduced bone damage” and the tumor growth entry is reported as “significant inhibition of tumor growth”. The “ACR 20/50/70 response rates” value in the assay with patients with active PsA is “higher ACR 20/50/70 response rates”.

(Values after patent publication US11702422B2, “Imidazopyridazines as modulators of IL-17” (Janssen Pharmaceutica NV, priority 2020, dated 2023).)
